According to US9096494B2, “Arachidonic acid analogs and methods for analgesic treatment using same” (priority 2009, dated 2015):
Where “and” joins values, the source holds several entries; their conditions need not be identical. Equal entries are not always repeated.

Columns and labels:
[1] = Analgesic potency comparison with natural EETs and AM404; conditions: in vivo
Description: Chemically, it is close structural analog of a set of lipid mediators derived from arachidonic acid that the body uses to control pain.

[2] = LC/MS pharmacokinetics of CMX-020 in mice (plasma, brain, liver); conditions: 15 min timepoint, 10 mg/kg iv, n=2 individual values
[3] = target: PPRA-Peroxisome proliferator-activated (Homo sapiens, UniProt P37231); test: Cerep BioPrint receptor binding
[4] = target: Dopamine/D1 (Homo sapiens, UniProt P21728); test: Cerep BioPrint dependence and addiction panel; assay type: binding
[5] = test system: plasma or serum proteins; test: Binding to plasma or serum proteins; assay type: in vitro ADME
Procedure: (§1) For the initial BioPrint screen, a free compound concentration of 10 μM was used, which corresponds to a 2.5 mg/kg bolus dose in a mouse. […] Thus, a 2.5 mg/kg bolus dose would be equivalent to a […] free compound concentration.

[6] = target: T1, MT1(ML1A) agonist-Melatonin (Homo sapiens, UniProt P48039); test: Cerep BioPrint receptor binding
T1 construct: Cerep (contract screen)
T1 sequence (P48039 whole entry): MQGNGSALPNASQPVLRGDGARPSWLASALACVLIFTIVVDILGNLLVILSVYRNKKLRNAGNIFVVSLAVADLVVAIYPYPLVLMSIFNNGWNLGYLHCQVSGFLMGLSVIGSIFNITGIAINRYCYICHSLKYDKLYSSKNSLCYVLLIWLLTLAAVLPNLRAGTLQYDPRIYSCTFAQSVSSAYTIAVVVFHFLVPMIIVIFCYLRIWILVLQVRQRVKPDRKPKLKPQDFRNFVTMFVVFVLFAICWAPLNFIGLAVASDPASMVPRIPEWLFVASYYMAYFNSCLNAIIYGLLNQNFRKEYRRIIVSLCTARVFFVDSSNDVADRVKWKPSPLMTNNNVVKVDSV

[7] = Antipyretic effect; assay type: in vivo, mice; conditions: CMX-020 Injectable Solution
Procedure: CMX-020 Injectable Solution may also be given to patients during surgery or dental procedures to relieve pain and as an adjunct to an anaesthetic.
Recordings of body temperature in male mice (30 grams) were achieved using a mouse rectal temperature probe. Baseline was recorded twice for 10 minutes at intervals of 2 minutes with a 15 minute span of no recording.

[8] = target: T2, A3 agonist-Adenosine A3 (Homo sapiens, UniProt P0DMS8); test: Cerep BioPrint receptor binding
T2 construct: Cerep (contract screen)
T2 sequence (P0DMS8 whole entry): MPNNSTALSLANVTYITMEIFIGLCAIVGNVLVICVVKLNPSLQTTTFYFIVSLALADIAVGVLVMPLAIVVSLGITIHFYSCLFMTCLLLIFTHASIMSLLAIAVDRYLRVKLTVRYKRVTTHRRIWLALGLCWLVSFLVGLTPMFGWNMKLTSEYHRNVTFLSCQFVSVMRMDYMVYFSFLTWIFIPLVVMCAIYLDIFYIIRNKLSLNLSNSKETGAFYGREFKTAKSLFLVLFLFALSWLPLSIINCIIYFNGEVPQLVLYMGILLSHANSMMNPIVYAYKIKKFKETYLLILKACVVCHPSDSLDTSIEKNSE

[9] = target: T3, GABA/GABAB(1b) (Homo sapiens, UniProt Q9UBS5); test: Cerep BioPrint dependence and addiction panel; assay type: binding
T3 construct: Cerep (contract screen)

[10] = target: T4, Opioid/NOP(ORL1) (Homo sapiens, UniProt P41146); test: Cerep BioPrint dependence and addiction panel; assay type: binding
T4 construct: Cerep (contract screening panel)
T4 sequence (P41146 whole entry, species assumed): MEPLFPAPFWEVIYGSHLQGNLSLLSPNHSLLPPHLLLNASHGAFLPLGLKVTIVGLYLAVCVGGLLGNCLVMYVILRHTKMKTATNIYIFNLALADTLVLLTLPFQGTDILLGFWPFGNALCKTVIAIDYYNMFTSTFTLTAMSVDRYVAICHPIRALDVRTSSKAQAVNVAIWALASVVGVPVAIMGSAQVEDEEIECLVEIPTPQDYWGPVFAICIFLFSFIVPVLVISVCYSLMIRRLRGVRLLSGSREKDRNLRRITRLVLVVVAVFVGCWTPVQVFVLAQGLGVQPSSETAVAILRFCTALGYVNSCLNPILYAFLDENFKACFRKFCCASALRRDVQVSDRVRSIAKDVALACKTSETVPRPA

[11] = Solubility in water
[12] = test system: TRPV1 vanilloid knockout mice; test: Analgesic effect in TRPV1 vanilloid knockout mice; assay type: in vivo; conditions: TRPV1 vanilloid knockout mice (homozygotes)
[13] = test system: mice; test: Tail-flick assay in mouse; assay type: in vivo; conditions: for time to maximal (full) analgesic response, tail-flick: 10 mg/kg intravenous bolus
Procedure: The tail-flick assay is based on the time measured to reflex withdrawal of the tail in response to a radiant heat source. The maximum exposure time to the radiant heat source is set at 10 seconds. Prior to treatment, a baseline (BL) time measured to tail-flick withdrawal is determined after two exposures to the radiant source separated by a 30 min period. Control mice are intravenously treated with vehicle and test mice are intravenously treated with analgesic test compound. Data of tail-flick withdrawal of treated mice (TM) are calculated as maximum possible effect (MPE), where MPE=(TM−BL)/(10−BL). Tail-flick withdrawal is measured at 5 min, 15 min, 30 mm, and 1 hr. A total of 3-5 mice are used for each time point tested.

[14] = target: T5, Steroid nuclear/GR (Homo sapiens, UniProt P04150); test: Cerep BioPrint dependence and addiction panel; assay type: binding
T5 construct: Cerep (contract screening panel)

[15] = target: T6, Melanocortin/MC4 (Homo sapiens, UniProt P32245); test: Cerep BioPrint dependence and addiction panel; assay type: binding
T6 construct: Cerep (contract screen)

[16] = test system: Glutamate/PCP; test: Cerep BioPrint dependence and addiction panel; assay type: binding
[17] = target: T7, Dopamine/dopamine transporter (Homo sapiens, UniProt Q01959); test: Cerep BioPrint dependence and addiction panel; assay type: binding
T7 construct: Cerep (contract screening panel)

[18] = target: T8, Cholecystokinin/CCK2 (Homo sapiens, UniProt P32239); test: Cerep BioPrint dependence and addiction panel; assay type: binding
T8 construct: Cerep (contract screen)
T8 sequence (P32239 whole entry): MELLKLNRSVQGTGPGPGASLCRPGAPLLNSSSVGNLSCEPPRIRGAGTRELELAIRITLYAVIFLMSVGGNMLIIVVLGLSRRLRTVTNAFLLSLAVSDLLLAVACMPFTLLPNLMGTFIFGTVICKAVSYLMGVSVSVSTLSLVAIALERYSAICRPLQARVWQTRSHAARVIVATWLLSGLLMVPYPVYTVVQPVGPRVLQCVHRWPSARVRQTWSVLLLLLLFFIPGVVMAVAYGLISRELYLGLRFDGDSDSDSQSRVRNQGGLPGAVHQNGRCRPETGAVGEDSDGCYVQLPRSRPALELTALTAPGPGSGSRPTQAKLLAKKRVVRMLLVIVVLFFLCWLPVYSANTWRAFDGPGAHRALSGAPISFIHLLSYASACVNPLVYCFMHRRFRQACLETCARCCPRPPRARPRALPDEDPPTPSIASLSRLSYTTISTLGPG

[19] = target: T9, Opioid/mu(MOP) (Homo sapiens, UniProt P35372); test: Cerep BioPrint dependence and addiction panel; assay type: binding
T9 construct: Cerep (contract screening panel)

[20] = target: T10, CB2 Cannabinoid agonist (Homo sapiens, UniProt P34972); test: Cerep BioPrint receptor binding
T10 construct: Cerep (contract screen)
T10 sequence (P34972 whole entry): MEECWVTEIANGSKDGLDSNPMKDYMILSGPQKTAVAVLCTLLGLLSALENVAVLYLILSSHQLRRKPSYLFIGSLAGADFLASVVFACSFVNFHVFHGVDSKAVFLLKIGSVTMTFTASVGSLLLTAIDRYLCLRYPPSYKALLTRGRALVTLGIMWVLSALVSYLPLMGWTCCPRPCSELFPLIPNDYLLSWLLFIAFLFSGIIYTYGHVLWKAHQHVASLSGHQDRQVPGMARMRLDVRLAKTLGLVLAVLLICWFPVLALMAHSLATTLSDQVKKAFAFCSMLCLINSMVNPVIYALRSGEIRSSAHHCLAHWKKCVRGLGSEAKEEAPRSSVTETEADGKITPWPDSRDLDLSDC
Procedure: as §1

[21] = target: T11, κ-opioid agonist (Rattus norvegicus, UniProt P34975); test: Cerep BioPrint receptor binding
T11 construct: Cerep (contract screen)
T11 sequence (P34975 whole entry): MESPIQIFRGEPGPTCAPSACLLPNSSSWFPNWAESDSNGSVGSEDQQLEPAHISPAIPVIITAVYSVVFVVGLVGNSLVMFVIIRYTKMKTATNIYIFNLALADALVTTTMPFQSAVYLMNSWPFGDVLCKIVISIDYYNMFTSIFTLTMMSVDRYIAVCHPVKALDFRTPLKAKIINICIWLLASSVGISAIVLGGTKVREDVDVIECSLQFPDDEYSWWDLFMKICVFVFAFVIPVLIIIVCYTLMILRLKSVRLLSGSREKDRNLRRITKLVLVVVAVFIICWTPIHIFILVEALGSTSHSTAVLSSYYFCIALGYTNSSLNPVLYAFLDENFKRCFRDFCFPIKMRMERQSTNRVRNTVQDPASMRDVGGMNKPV
Procedure: as §1

[22] = target: T12, δ- opioid agonist (Homo sapiens, UniProt P41143); test: Cerep BioPrint receptor binding
T12 construct: Cerep (contract screen)
T12 sequence (P41143 whole entry): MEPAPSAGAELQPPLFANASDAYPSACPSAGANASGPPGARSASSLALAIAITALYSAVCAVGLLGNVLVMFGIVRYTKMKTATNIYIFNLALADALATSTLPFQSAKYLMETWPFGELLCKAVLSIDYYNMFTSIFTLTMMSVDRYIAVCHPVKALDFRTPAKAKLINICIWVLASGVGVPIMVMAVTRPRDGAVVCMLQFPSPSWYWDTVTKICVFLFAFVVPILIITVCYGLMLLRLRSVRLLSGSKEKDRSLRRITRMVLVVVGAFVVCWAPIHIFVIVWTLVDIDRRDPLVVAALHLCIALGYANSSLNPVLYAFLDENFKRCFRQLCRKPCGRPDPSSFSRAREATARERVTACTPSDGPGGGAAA
Procedure: as §1

[23] = target: T13, CB1 Cannabinoid agonist (Homo sapiens, UniProt P21554); test: Cerep BioPrint receptor binding
T13 construct: Cerep (contract screen)
T13 sequence (P21554 whole entry): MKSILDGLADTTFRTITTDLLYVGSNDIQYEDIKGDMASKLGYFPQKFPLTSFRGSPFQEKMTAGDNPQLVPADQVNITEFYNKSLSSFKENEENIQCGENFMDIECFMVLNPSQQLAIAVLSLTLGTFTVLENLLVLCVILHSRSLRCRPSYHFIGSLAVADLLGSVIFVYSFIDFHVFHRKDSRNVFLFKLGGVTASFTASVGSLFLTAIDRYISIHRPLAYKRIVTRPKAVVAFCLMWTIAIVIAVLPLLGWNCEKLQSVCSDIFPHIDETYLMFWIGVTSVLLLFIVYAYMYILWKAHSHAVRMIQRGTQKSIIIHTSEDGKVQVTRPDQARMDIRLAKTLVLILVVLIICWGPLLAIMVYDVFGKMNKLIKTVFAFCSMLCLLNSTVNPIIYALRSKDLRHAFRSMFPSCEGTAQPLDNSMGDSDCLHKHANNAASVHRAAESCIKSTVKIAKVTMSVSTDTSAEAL
Procedure: as §1

[24] = test system: Sigma/Sigma non selective; test: Cerep BioPrint dependence and addiction panel; assay type: binding
[25] = test system: GABA/GABAA; test: Cerep BioPrint dependence and addiction panel; assay type: binding
[26] = target: Dopamine/D2S (Homo sapiens, UniProt P14416); test: Cerep BioPrint dependence and addiction panel; assay type: binding
[27] = target: T14, Serotonin/5-HT1A (Homo sapiens, UniProt P08908); test: Cerep BioPrint dependence and addiction panel; assay type: binding
T14 construct: Cerep (contract screen)
T14 sequence (P08908 whole entry): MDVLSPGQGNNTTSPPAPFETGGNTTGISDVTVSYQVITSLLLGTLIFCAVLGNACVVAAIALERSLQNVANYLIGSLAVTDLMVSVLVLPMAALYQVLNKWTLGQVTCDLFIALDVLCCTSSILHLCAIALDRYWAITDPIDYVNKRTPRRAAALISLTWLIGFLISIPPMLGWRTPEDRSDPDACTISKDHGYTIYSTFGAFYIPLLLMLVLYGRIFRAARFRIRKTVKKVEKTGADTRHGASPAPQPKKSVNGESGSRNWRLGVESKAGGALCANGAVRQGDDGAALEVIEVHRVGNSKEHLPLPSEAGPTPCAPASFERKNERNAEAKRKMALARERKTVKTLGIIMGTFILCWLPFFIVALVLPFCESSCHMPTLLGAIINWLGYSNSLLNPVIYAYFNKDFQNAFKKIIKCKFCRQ

[28] = in vivo; conditions: mouse, iv, 10 mg/kg
[29] = target: Dopamine/D3 (Homo sapiens, UniProt P35462); test: Cerep BioPrint dependence and addiction panel; assay type: binding
[30] = target: Serotonin/5-HT3 (Homo sapiens, UniProt P46098); test: Cerep BioPrint dependence and addiction panel; assay type: binding
Serotonin/5-HT3, sequence (P46098 24-478): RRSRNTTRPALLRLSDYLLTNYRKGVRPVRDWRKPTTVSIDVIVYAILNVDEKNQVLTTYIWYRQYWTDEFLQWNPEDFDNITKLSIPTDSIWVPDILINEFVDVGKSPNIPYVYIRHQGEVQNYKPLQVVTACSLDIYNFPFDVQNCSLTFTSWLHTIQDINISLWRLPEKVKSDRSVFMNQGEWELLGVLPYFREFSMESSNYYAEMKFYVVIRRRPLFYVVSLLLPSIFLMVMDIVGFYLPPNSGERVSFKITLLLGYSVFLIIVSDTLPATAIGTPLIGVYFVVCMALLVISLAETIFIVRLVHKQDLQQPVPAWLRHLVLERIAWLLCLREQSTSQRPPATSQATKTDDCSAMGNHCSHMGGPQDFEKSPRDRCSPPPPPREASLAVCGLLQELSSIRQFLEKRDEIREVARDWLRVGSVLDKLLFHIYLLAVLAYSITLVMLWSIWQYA

[31] = target: T15, TRPV1(VR1) agonist (Rattus norvegicus, UniProt O35433); test: Cerep BioPrint receptor binding
T15 construct: Cerep (contract screen)
T15 sequence (O35433 whole entry): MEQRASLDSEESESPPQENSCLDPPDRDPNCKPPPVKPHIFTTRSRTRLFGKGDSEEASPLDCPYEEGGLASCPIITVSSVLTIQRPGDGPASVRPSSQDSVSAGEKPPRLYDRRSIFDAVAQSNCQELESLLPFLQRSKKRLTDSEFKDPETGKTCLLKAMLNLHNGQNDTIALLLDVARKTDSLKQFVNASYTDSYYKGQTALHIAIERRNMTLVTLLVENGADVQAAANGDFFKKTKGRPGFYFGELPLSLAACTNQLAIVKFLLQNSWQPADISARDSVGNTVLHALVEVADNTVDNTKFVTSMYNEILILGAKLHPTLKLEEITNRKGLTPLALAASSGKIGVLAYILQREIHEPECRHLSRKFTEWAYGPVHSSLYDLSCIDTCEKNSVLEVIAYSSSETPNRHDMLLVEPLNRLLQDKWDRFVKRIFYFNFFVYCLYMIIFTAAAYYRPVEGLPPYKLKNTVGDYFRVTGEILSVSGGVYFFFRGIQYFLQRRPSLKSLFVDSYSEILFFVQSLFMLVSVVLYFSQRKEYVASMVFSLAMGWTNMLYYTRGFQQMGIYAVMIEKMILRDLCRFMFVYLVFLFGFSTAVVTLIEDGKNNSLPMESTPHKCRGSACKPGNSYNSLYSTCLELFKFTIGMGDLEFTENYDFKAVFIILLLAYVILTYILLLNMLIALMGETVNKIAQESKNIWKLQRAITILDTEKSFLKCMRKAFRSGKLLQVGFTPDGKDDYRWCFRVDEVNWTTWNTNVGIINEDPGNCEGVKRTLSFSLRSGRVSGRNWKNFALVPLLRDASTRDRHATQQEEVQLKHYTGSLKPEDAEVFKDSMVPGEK

[32] = test system: ATPase/ATPase(Na+/K+); test: Cerep BioPrint dependence and addiction panel (enzyme); assay type: biochemical
[33] = target: CL-Channel (GABA gated) antagonist; test: Cerep BioPrint receptor binding
[34] = test system: mice; test: Writhing assay in mouse (bolus and continuous infusion); assay type: in vivo; conditions: for dose dependence of the level of analgesia: mouse writhing assay
[35] = target: T16, Serotonin/5-Ht2A (Homo sapiens, UniProt P28223); test: Cerep BioPrint dependence and addiction panel; assay type: binding
T16 construct: Cerep (contract screen)

[36] = test system: Glutamate/AMPA; test: Cerep BioPrint dependence and addiction panel; assay type: binding
[37] = test system: dopamine levels; test: Effect on dopamine levels; conditions: compared with Δ9-THC
[38] = target: T17, Serotonin/5HT transporter (Homo sapiens, UniProt P31645); test: Cerep BioPrint dependence and addiction panel; assay type: binding
T17 construct: Cerep (contract screening panel)

[39] = test system: Dopamine transporter/5HT transporter; test: Cerep BioPrint dependence and addiction panel; assay type: binding
[40] = target: T18, Adenosine/A2A (Homo sapiens, UniProt P29274); test: Cerep BioPrint dependence and addiction panel; assay type: binding
T18 construct: Cerep (contract screen)

[41] = test system: CB1 cannabinoid knockout mice; test: Analgesic effect in CB1 cannabinoid knockout mice; assay type: in vivo; conditions: CB1 cannabinoid knockout mice (homozygotes)
[42] = Intravenous analgesia: onset and duration of effect; conditions: for time to peak effect: animal tests; for onset of analgesia after intravenous bolus injection or infusion: from the start of injection; for duration of analgesic effect from bolus injection: intravenous bolus
[43] = LD50 established using mice; assay type: in vivo; conditions: in vivo, body surface area translation mouse to human
Procedure: (§2) LD50 (abbreviation for “Lethal Dose, 50%”) is established using mice. The dose translation between mouse and human is based on body surface area allometric translation. For example, a 1 mg/kg mouse dose is equivalent to a 0.08 mg/kg human dose. For more information on species dose translation see: Reagan-Shaw et. al, FASEB J. 122, 659-661 (2007).

[44] = test system: mice; test: LD50 established using mice; assay type: in vivo
Procedure: as §2

[45] = CMX-020 Injectable Emulsion, from mouse writhing assay
[46] = continuous infusion, from mouse writhing assay

CCCCCC1OC1C/C=C\C/C=C\C/C=C\CCCC(=O)O (stereo not drawn) [14,15-EET, 14,15-EET (epoxyeicosatrienoic acid), reference compound]
analgesic potency relative to natural EETs [1]: most potent analgesic of the natural EETs

CCCCCC(=O)N(CC/C=C\C/C=C\C/C=C\CCCC(=O)NC1CC1)C(C)C [CMX-020]
amount present in brain [2]: 843 ng/g tissue
amount present in liver [2]: 211 ng/g tissue
inhibition at 10 µM [3]: 58%
% Inhibition @10 uM [4]: 7%
fraction unbound [5]: ~0.01
IC50 [6]: 1.2 µM
inhibition at 10 µM ([6]; MT1(ML1A) agonist-Melatonin, 10 uM): 88%
duration of the antipyretic effect after ending administration [7]: at least 2 hours
time to fever reduction after the start of administration [7]: ≤ 30 min
IC50 [8]: 2.6 µM
inhibition at 10 µM ([8]; A3 agonist-Adenosine A3, 10 uM): 64%
inhibition at 10 µM [9]: -6%
inhibition at 10 µM [10]: 5%
solubility in water [11]: very slightly soluble
analgesic effect in knockout mice [12]: altered
time to maximal (full) analgesic response, tail-flick [13]: 5 min
inhibition at 10 µM [14]: 9%
inhibition at 10 µM [15]: 0%
% Inhibition @10 uM [16]: −6%
inhibition at 10 µM [17]: 15%
inhibition at 10 µM [18]: -27%
inhibition at 10 µM [19]: 26%
IC50 [20]: 0.15 µM
inhibition at 10 µM ([20]; CB2 Cannabinoid agonist, 10 uM): 98%
IC50 [21]: 4.7 µM
inhibition at 10 µM ([21]; κ-opioid agonist, 10 uM): 61%
IC50 [22]: 13 µM
inhibition at 10 µM ([22]; δ- opioid agonist, 10 uM): 52%
IC50 [23]: 0.021 µM
inhibition at 10 µM ([23]; CB1 Cannabinoid agonist, 10 uM): 98%
% Inhibition @10 uM [24]: 31%
% Inhibition @10 uM [25]: 11%
% Inhibition @10 uM [26]: 8%
% Inhibition @10 uM [27]: 26%
concentration at 15 min ([28]; brain): 704 ng/g
concentration at 60 min ([28]; brain): < 20 ng/g
concentration at 15 min ([28]; liver): 170 ng/g
concentration at 60 min ([28]; liver): < 20 ng/g
C0 ([28]; plasma): ~14000 ng/mL and ~33 µM
half-life ([28]; plasma): ~17 min
% Inhibition @10 uM [29]: 25%
% Inhibition @10 uM [30]: −1%
IC50 [31]: 7.5 µM
% Inhibition @10 uM ([31]; TRPV1(VR1) agonist, 10 uM): 59%
% Inhibition @10 uM [32]: 12%
IC50 [33]: 5.1 µM
continuous infusion dose producing roughly the same level of analgesia (roughly 50% MPE), writhing assay ([34]; 24 hour infusion by Alzet pump, measured at 3 hours and 20 hours, preliminary): 2 mg/kg/h
analgesic response compared with Perfalgan 12.5 mg/kg, writhing assay ([34]; CMX-020 0.05 mg/kg): higher analgesic response than Perfalgan
Analgesic Equivalent to Acetaminophen 2x, Bolus dose [34, 45]: 0.02 mg/kg
Analgesic Equivalent to Acetaminophen 3x, Bolus dose [34, 45]: 0.04 mg/kg
time over which analgesic levels are sustained by continuous infusion ([34]; continuous infusion in mice): 24 h
Analgesic Equivalent to Acetaminophen 1x, Maintenance dose [34, 46]: 0.08 mg/kg/h
Analgesic Equivalent to Acetaminophen 2x, Maintenance dose [34, 46]: 0.16 mg/kg/h
Analgesic Equivalent to Acetaminophen 3x, Maintenance dose [34, 46]: 0.32 mg/kg/h
Analgesic Equivalent to Acetaminophen 1x, Bolus dose ([34]; for a 70 kg human): 0.6 mg
Analgesic Equivalent to Acetaminophen 1x, Maintenance dose ([34]; for a 70 kg human): 6 mg/h
Analgesic Equivalent to Acetaminophen 2x, Bolus dose ([34]; for a 70 kg human): 1.4 mg
Analgesic Equivalent to Acetaminophen 2x, Maintenance dose ([34]; for a 70 kg human): 11 mg/h
Analgesic Equivalent to Acetaminophen 3x, Bolus dose ([34]; for a 70 kg human): 2.8 mg
Analgesic Equivalent to Acetaminophen 3x, Maintenance dose ([34]; for a 70 kg human): 23 mg/h
dose achieving 100% MPE, writhing assay ([34]; intravenous bolus): approximately 0.5 mg/kg
dose dependence of the level of analgesia [34]: dose dependent
Analgesic Equivalent to Acetaminophen 1x, Bolus dose ([34]; mouse, in vivo, iv): 0.01 mg/kg
inhibition at 10 µM [35]: 29%
% Inhibition @10 uM [36]: 9%
effect on dopamine levels [37]: does not elevate dopamine levels
inhibition at 10 µM [38]: 10%
% Inhibition @10 uM [39]: 15%
inhibition at 10 µM [40]: 7%
analgesic effect in knockout mice [41]: almost completely blocked
analgesic potency in side-by-side comparison with AM404 [1]: more potent analgesic without the toxic effects
time to peak effect [42]: within minutes
time for which sustained levels of analgesia can be maintained ([42]; continuous infusion): ≥ 48 h
onset of analgesia after intravenous bolus injection or infusion [42]: 3 to 5 min
half-time of the blood-brain equilibration ([42]; intravenous): 1 to 3 min
duration of analgesic effect from bolus injection [42]: 20 to 30 min and 20 to 25 min
LD50 [43]: 2.4 mg/kg
LD50 CMX-020 Doses, Maintenance ([44]; body surface area translation mouse to human): 6.4 mg/kg/h
LD50 CMX-020 Doses, Bolus ([44]; for a 70 kg human): 170 mg
LD50 CMX-020 Doses, Maintenance ([44]; for a 70 kg human): 450 mg/h

CN1CC[C@]23c4c5ccc(O)c4O[C@H]2[C@@H](O)C=C[C@H]3[C@H]1C5 [Morphine, morphine, reference compound]
time to maximal (full) analgesic response, tail-flick [13]: 15 min
dose needed in tail-flick assay relative to writhing assay for a moderate level of efficacy ([13]; intravenous): roughly 100 ×
continuous infusion dose producing roughly the same level of analgesia (roughly 50% MPE), writhing assay ([34]; mouse, in vivo): 1 mg/kg/h
time over which analgesic levels are sustained by continuous infusion ([34]; mouse, in vivo): 24 h
dose achieving 100% MPE, writhing assay ([34]; mouse, in vivo, iv): approximately 0.5 mg/kg
time to peak effect [42]: 15 to 40 min
onset of analgesia after intravenous bolus injection or infusion [42]: 20 min
duration of analgesic effect from bolus injection [42]: 35 to 40 min

CC(=O)Nc1ccc(O)cc1 [acetaminophen, reference compound]
dose dependence of the level of analgesia [34]: not dose dependent
